Earlier results in article PMC6673652 (Nature protocols, 2018).
Where two headings read alike, the source gives them in different places.

Experiments:
[1] = Cy5.5-labeled peptide, 5 μM, 3 hrs, previously tested

Molecule | BBB organoid permeability (BBB organoids) | BBB penetration in vivo (in vivo) | further results
Nc1cc(C(F)(F)F)c(-c2cc(N3CCOCC3)nc(N3CCOCC3)n2)cn1 [BKM120] | – | – | BBB crossing as known from literature: known to cross the BBB
CC(C)(C)c1nc(-c2cccc(NS(=O)(=O)c3c(F)cccc3F)c2F)c(-c2ccnc(N)n2)s1 [Dabrafenib] | – | – | BBB penetration as known from literature: limited BBB penetration
ZAGYLLGKINLKALAALAKKIL [Transportan 10] | – | – | BBB organoid permeability (BBB organoids; [1]): High
ZLYKKGPAKKGRPPLRGWFH [SVM4] | High | – | –
ZPLSSIFSRIGDP [PreS2-TLM] | – | – | BBB organoid permeability (BBB organoids; [1]): High
ZPPRPPRPPR [(PPR)3] | High | – | –
ZRKKRRQRRR [HIV-1 Tat] | – | – | BBB organoid permeability (BBB organoids; [1]): High; BBB penetration in vivo: Yes [31]
ZRQVTIWFQNRRVKEKK [HoxA-13] | Very high | Yes [6] | –
ZRRRRRRRR [Polyarginine] | High | – | –
ZVELPPPVELPPPVELPPP [SAP(E)] | High | – | –
ZVKRGLKLRHVRPRVTRMDV [DPV1047] | High | – | –

More lines, main results first:

BBB organoid permeability (BBB organoids) | BBB penetration in vivo (in vivo) | Molecule | further results
High | Yes[6],[29] | TFFYGGSRGKRNNFKTEEY [Angiopep-2] | BBB crossing as known from literature (in vivo): known to cross the BBB via receptor mediated transcytosis
High | – | ZHARIKPTFRRLKWKYKGKFW [L-2] | –
High | – | ZKGTYKKKLMRIPLKGT [SVM3] | –
Very high | Yes [6] | ZLRRERQSRLRRERQSR [DPV15] | –
High | – | ZPPRPPRPPRPPRPPR [(PPR)5] | –
– | Yes [31] | ZRGGRLSYSRRRFSTSTGR [SynB1] | –
High | Yes [31] | ZRQIKIWFQNRRMKWKK [Penetratin] | –
Very high | – | ZSQIKIWFQNKRAKIKK [Engrailed-2] | –
Very high | Yes [6] | ZVPALR [Bip(1)] | –
High | – | ZVRLPPPVRLPPPVRLPPP [SAP] | –
Very high | Yes [6] | ZVSALK [Bip(2)] | –
